Numbers after ± are expanded uncertainties.
Test: xn = mol fraction of the nth substance listed
Conditions: Fluid (supercritical or subcritical phases), Constant-volume piezometry

N [ammonia] + O
mass density (253.18 K, 483.5 kPa, x1 = 0.1386): 956.4 ± 0.21 kg/m3
mass density (254.14 K, 619.3 kPa, x1 = 0.1386): 956.35 ± 0.21 kg/m3
mass density (257.06 K, 1159.1 kPa, x1 = 0.1386): 956.19 ± 0.21 kg/m3
mass density (259.15 K, 1375.1 kPa, x1 = 0.1086): 964.04 ± 0.22 kg/m3
mass density (259.15 K, 1646.6 kPa, x1 = 0.1386): 956.07 ± 0.21 kg/m3
mass density (260.13 K, 3144.3 kPa, x1 = 0.0999): 971.4 ± 0.26 kg/m3
mass density (260.15 K, 1417.1 kPa, x1 = 0.1086): 963.99 ± 0.22 kg/m3
mass density (260.15 K, 3759 kPa, x1 = 0.0955): 968.65 ± 0.23 kg/m3
mass density (261.02 K, 2146.1 kPa, x1 = 0.1386): 955.96 ± 0.21 kg/m3
mass density (261.14 K, 1483.6 kPa, x1 = 0.1086): 963.95 ± 0.22 kg/m3
mass density (261.15 K, 3146.8 kPa, x1 = 0.0999): 971.36 ± 0.22 kg/m3
mass density (261.15 K, 3737.1 kPa, x1 = 0.0955): 968.61 ± 0.23 kg/m3
mass density (262.12 K, 3739.8 kPa, x1 = 0.0955): 968.57 ± 0.23 kg/m3
mass density (262.15 K, 1572 kPa, x1 = 0.1086): 963.9 ± 0.22 kg/m3
mass density (262.15 K, 3173.9 kPa, x1 = 0.0999): 971.31 ± 0.23 kg/m3
mass density (263.13 K, 1676.5 kPa, x1 = 0.1086): 963.85 ± 0.22 kg/m3
mass density (263.13 K, 1686.6 kPa, x1 = 0.1086): 963.85 ± 0.22 kg/m3
mass density (263.13 K, 3221.1 kPa, x1 = 0.0999): 971.27 ± 0.23 kg/m3
mass density (263.16 K, 3225.1 kPa, x1 = 0.0999): 971.27 ± 0.23 kg/m3
mass density (263.16 K, 3766.5 kPa, x1 = 0.0955): 968.52 ± 0.24 kg/m3
mass density (263.96 K, 16220 kPa, x1 = 0.0606): 987.12 ± 0.26 kg/m3
mass density (264.11 K, 3813.7 kPa, x1 = 0.0955): 968.48 ± 0.24 kg/m3
mass density (264.14 K, 3297.9 kPa, x1 = 0.0999): 971.22 ± 0.23 kg/m3
mass density (264.15 K, 1824.1 kPa, x1 = 0.1086): 963.8 ± 0.22 kg/m3
mass density (265 K, 16117 kPa, x1 = 0.0606): 987.08 ± 0.26 kg/m3
mass density (265.13 K, 3469.4 kPa, x1 = 0.1386): 955.71 ± 0.22 kg/m3
mass density (265.15 K, 1981.7 kPa, x1 = 0.1086): 963.75 ± 0.21 kg/m3
mass density (265.15 K, 3396.5 kPa, x1 = 0.0999): 971.17 ± 0.23 kg/m3
mass density (265.15 K, 3889.7 kPa, x1 = 0.0955): 968.43 ± 0.24 kg/m3
mass density (265.18 K, 5311.9 kPa, x1 = 0.0644): 979.94 ± 0.23 kg/m3
mass density (265.38 K, 8334.6 kPa, x1 = 0.064): 980.35 ± 0.23 kg/m3
mass density (265.62 K, 811.9 kPa, x1 = 0.0591): 975.65 ± 0.21 kg/m3
mass density (265.99 K, 16054 kPa, x1 = 0.0606): 987.04 ± 0.26 kg/m3
mass density (266.12 K, 16223 kPa, x1 = 0.047): 989.78 ± 0.26 kg/m3
mass density (266.14 K, 745.3 kPa, x1 = 0.0591): 975.64 ± 0.21 kg/m3
mass density (266.14 K, 8277 kPa, x1 = 0.064): 980.32 ± 0.24 kg/m3
mass density (266.15 K, 2619 kPa, x1 = 0.0582): 979.8 ± 0.22 kg/m3
mass density (266.63 K, 698.1 kPa, x1 = 0.0591): 975.62 ± 0.21 kg/m3
mass density (267.09 K, 4204.5 kPa, x1 = 0.1386): 955.58 ± 0.22 kg/m3
mass density (267.13 K, 2495.5 kPa, x1 = 0.0582): 979.77 ± 0.22 kg/m3
mass density (267.14 K, 8221.5 kPa, x1 = 0.064): 980.28 ± 0.24 kg/m3
mass density (267.15 K, 298 kPa, x1 = 0.1436): 952.4 ± 0.21 kg/m3
mass density (267.15 K, 2355.6 kPa, x1 = 0.1086): 963.64 ± 0.21 kg/m3
mass density (267.15 K, 3654.7 kPa, x1 = 0.0999): 971.07 ± 0.23 kg/m3
mass density (267.15 K, 16033 kPa, x1 = 0.047): 989.74 ± 0.26 kg/m3
mass density (267.16 K, 634.7 kPa, x1 = 0.0591): 975.6 ± 0.21 kg/m3
mass density (267.17 K, 5193.7 kPa, x1 = 0.0644): 979.87 ± 0.23 kg/m3
mass density (268.02 K, 15974 kPa, x1 = 0.0606): 986.96 ± 0.26 kg/m3
mass density (268.1 K, 7316.4 kPa, x1 = 0.0513): 984.85 ± 0.24 kg/m3
mass density (268.15 K, 723.3 kPa, x1 = 0.1436): 952.33 ± 0.21 kg/m3
mass density (268.17 K, 2415.7 kPa, x1 = 0.0582): 979.73 ± 0.22 kg/m3
mass density (268.17 K, 15948 kPa, x1 = 0.047): 989.7 ± 0.26 kg/m3
mass density (269 K, 15979 kPa, x1 = 0.0606): 986.92 ± 0.26 kg/m3
mass density (269.1 K, 7244.1 kPa, x1 = 0.0513): 984.81 ± 0.23 kg/m3
mass density (269.1 K, 7256.7 kPa, x1 = 0.0513): 984.81 ± 0.23 kg/m3
mass density (269.11 K, 500.6 kPa, x1 = 0.0591): 975.52 ± 0.21 kg/m3
mass density (269.14 K, 2812.6 kPa, x1 = 0.1086): 963.53 ± 0.22 kg/m3
mass density (269.14 K, 5179.9 kPa, x1 = 0.0644): 979.78 ± 0.23 kg/m3
mass density (269.15 K, 1141.1 kPa, x1 = 0.1436): 952.26 ± 0.21 kg/m3
mass density (269.15 K, 4001.7 kPa, x1 = 0.0999): 970.97 ± 0.23 kg/m3
mass density (269.15 K, 8192.6 kPa, x1 = 0.064): 980.19 ± 0.23 kg/m3
mass density (269.15 K, 8194.7 kPa, x1 = 0.064): 980.19 ± 0.23 kg/m3
mass density (269.17 K, 15892 kPa, x1 = 0.047): 989.66 ± 0.26 kg/m3
mass density (269.18 K, 4424 kPa, x1 = 0.0955): 968.23 ± 0.22 kg/m3
mass density (269.19 K, 2364.1 kPa, x1 = 0.0582): 979.69 ± 0.22 kg/m3
mass density (269.2 K, 5071.6 kPa, x1 = 0.1386): 955.44 ± 0.22 kg/m3
mass density (270.13 K, 15862 kPa, x1 = 0.047): 989.62 ± 0.26 kg/m3
mass density (270.14 K, 4346.8 kPa, x1 = 0.0302): 991.12 ± 0.23 kg/m3
mass density (270.15 K, 1609 kPa, x1 = 0.1436): 952.18 ± 0.21 kg/m3
mass density (270.15 K, 7195.1 kPa, x1 = 0.0513): 984.77 ± 0.23 kg/m3
mass density (270.15 K, 15862 kPa, x1 = 0.047): 989.62 ± 0.26 kg/m3
mass density (270.99 K, 16062 kPa, x1 = 0.0606): 986.82 ± 0.26 kg/m3
mass density (271.11 K, 15856 kPa, x1 = 0.047): 989.57 ± 0.26 kg/m3
mass density (271.12 K, 467.5 kPa, x1 = 0.0591): 975.44 ± 0.21 kg/m3
mass density (271.13 K, 15857 kPa, x1 = 0.047): 989.57 ± 0.26 kg/m3
mass density (271.14 K, 3349.5 kPa, x1 = 0.1086): 963.41 ± 0.22 kg/m3
mass density (271.15 K, 2091.5 kPa, x1 = 0.1436): 952.11 ± 0.21 kg/m3
mass density (271.15 K, 3960.4 kPa, x1 = 0.014): 996.21 ± 0.23 kg/m3
mass density (271.15 K, 7177.2 kPa, x1 = 0.0513): 984.72 ± 0.23 kg/m3
mass density (271.15 K, 8265.9 kPa, x1 = 0.064): 980.1 ± 0.23 kg/m3
mass density (271.16 K, 4437.7 kPa, x1 = 0.0999): 970.85 ± 0.59 kg/m3
mass density (271.17 K, 4208.2 kPa, x1 = 0.0302): 991.09 ± 0.23 kg/m3
mass density (271.17 K, 5274.3 kPa, x1 = 0.0644): 979.69 ± 0.23 kg/m3
mass density (271.18 K, 2339.7 kPa, x1 = 0.0582): 979.6 ± 0.22 kg/m3
mass density (271.18 K, 4814.2 kPa, x1 = 0.0955): 968.12 ± 0.27 kg/m3
mass density (272.15 K, 3778.7 kPa, x1 = 0.014): 996.18 ± 0.23 kg/m3
mass density (272.15 K, 4113.5 kPa, x1 = 0.0302): 991.05 ± 0.23 kg/m3
mass density (272.15 K, 7185.7 kPa, x1 = 0.0513): 984.68 ± 0.23 kg/m3
mass density (272.15 K, 15879 kPa, x1 = 0.047): 989.53 ± 0.26 kg/m3
mass density (273.13 K, 4952 kPa, x1 = 0.0999): 970.74 ± 0.22 kg/m3
mass density (273.14 K, 506.6 kPa, x1 = 0.0591): 975.35 ± 0.21 kg/m3
mass density (273.14 K, 4040.3 kPa, x1 = 0.0302): 991.01 ± 0.23 kg/m3
mass density (273.14 K, 16263 kPa, x1 = 0.0606): 986.71 ± 0.26 kg/m3
mass density (273.15 K, 2431.2 kPa, x1 = 0.0582): 979.51 ± 0.22 kg/m3
mass density (273.15 K, 3104.4 kPa, x1 = 0.1436): 951.96 ± 0.21 kg/m3
mass density (273.15 K, 3633.6 kPa, x1 = 0.014): 996.14 ± 0.23 kg/m3
mass density (273.15 K, 3634.2 kPa, x1 = 0.014): 996.14 ± 0.23 kg/m3
mass density (273.15 K, 3935 kPa, x1 = 0.1086): 963.29 ± 0.22 kg/m3
mass density (273.15 K, 7219.4 kPa, x1 = 0.0513): 984.63 ± 0.23 kg/m3
mass density (273.15 K, 8435.9 kPa, x1 = 0.064): 980.01 ± 0.23 kg/m3
mass density (273.17 K, 15928 kPa, x1 = 0.047): 989.48 ± 0.25 kg/m3
mass density (274.14 K, 16000 kPa, x1 = 0.047): 989.44 ± 0.26 kg/m3
mass density (274.15 K, 3992.2 kPa, x1 = 0.0302): 990.97 ± 0.23 kg/m3
mass density (274.15 K, 7279.5 kPa, x1 = 0.0513): 984.59 ± 0.23 kg/m3
mass density (274.99 K, 16547 kPa, x1 = 0.0606): 986.61 ± 0.26 kg/m3
mass density (275.08 K, 7892.7 kPa, x1 = 0.1386): 955.03 ± 0.23 kg/m3
mass density (275.13 K, 677.5 kPa, x1 = 0.0591): 975.25 ± 0.22 kg/m3
mass density (275.14 K, 2612.8 kPa, x1 = 0.0582): 979.41 ± 0.22 kg/m3
mass density (275.15 K, 3430.4 kPa, x1 = 0.014): 996.07 ± 0.23 kg/m3
mass density (275.15 K, 3431.2 kPa, x1 = 0.014): 996.07 ± 0.23 kg/m3
mass density (275.15 K, 3970.2 kPa, x1 = 0.0302): 990.93 ± 0.22 kg/m3
mass density (275.15 K, 4178.5 kPa, x1 = 0.1436): 951.81 ± 0.21 kg/m3
mass density (275.15 K, 4633.1 kPa, x1 = 0.1086): 963.16 ± 0.22 kg/m3

Source: the NIST ThermoML archive (doi:10.1007/s10765-005-8590-7)
